The values that follow come from patent US12290535B2, “Langerin+ cell targeting” (Max-Planck-Gesellschaft zur Förderung der Wissenschaften …, priority 2018, dated 2025).

As usually defined, the Ki is the equilibrium dissociation constant of an inhibitor or competing ligand from its target. Higher therefore signals lower affinity. In general, Kd refers to the concentration at which binding is half-saturated.

One data set addresses T1, DC-SIGN CRD (Homo sapiens, UniProt Q9NNX6).
T1 construct: residues 205 to 404; TEV site (C); StreptagII (C); made in house; host or cells: E. coli BL21* (DE3)
T1 sequence (Q9NNX6 250-404): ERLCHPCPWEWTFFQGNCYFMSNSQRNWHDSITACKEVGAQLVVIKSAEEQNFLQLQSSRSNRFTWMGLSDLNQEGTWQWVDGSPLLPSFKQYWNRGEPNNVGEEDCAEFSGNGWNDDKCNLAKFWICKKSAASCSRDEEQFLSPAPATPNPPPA
In words: 19F R2-filtered NMR reporter displacement assay transferred to DC-SIGN. Format: binding. The following applies: 19F R2-filtered NMR, DC-SIGN CRD 50 μM, pH 7.0, 25° C. As for the experimental part:
Langerin and DC-SIGN carbohydrate recognition domain. Expression and purification were conducted as previously published. Briefly, the monomeric ^15N-labeled Langerin and DC-SIGN carbohydrate recognition domains (CRDs) were expressed insolubly in E. coli BL21* (DE3) (Invitrogen). Following enzymatic cell lysis, inclusion bodies were harvested and subsequently solubilized. The sample was centrifuged and the Langerin and DC-SIGN CRDs were refolded overnight via rapid dilution. Next, the sample was dialyzed overnight, centrifuged and purified via StrepTactin affinity chromatography (Iba). After an additional dialysis step overnight, the sample was centrifuged and the buffer was exchanged to 25 mM HEPES with 150 mM NaCl at pH 7.0 using 7 kDa size-exclusion desalting columns (Thermo Scientific) for ^19F R2-filtered and ^15N HSQC NMR experiments. The concentration of Langerin and DC-SIGN CRDs was determined via UV spectroscopy (A280, 0.1%=3.19 and A280, 0.1%=2.98). Purity and monodispersity of Langerin and DC-SIGN CRD samples were analyzed via SDS PAGE and DLS.
General remarks. ^19F R2-filtered NMR experiments were conducted on a PremiumCompact 600 MHz spectrometer (Agilent). […] Apparent relaxation rates R2,obs for the reporter ligand were determined using the CPMG pulse sequence as previously published (Wamhoff, E. C. et al. (19)F Nmr-Guided Design of Glycomimetic Langerin Ligands. ACS Chem Biol, 11, 2407-13 (2016): Carr, H. Y. & Purcell, E. M. Effects of Diffusion on Free Precession in Nuclear Magnetic Resonance Experiments. Phys Rev, 94, 630-638 (1954); Meiboom, S. & Gill, D. Modified Spin-Echo Method for Measuring Nuclear Relaxation Times. Rev Sci Instrum 29, 688-691 (1958)).
Assay development for DC-SIGN. […] Briefly, the KD value and the relaxation rate in bound state R2,b were determined at five concentrations [L]T of reporter ligand 24 in three independent titration experiments. […]
Ki determination. Ki values were determined as previously published for Langerin (Wamhoff, E. C. et al. (19)F NMR-Guided Design of Glycomimetic Langerin Ligands. ACS Chem Biol 11, 2407-13 (2016)). […]

The next data set deals with T2, Langerin ECD (Homo sapiens, UniProt Q9UJ71, V278A).
T2 construct: residues 148 to 328; TEV site (C); StreptagII (C); made in house; host or cells: E. coli BL21* (DE3)
T2 sequence (Q9UJ71 148-328 V278A): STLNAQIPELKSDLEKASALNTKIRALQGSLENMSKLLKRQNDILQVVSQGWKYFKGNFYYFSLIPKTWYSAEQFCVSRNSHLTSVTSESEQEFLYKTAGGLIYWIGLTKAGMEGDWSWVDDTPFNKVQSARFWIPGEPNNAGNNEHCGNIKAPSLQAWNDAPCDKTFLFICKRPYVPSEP
As to the kind of experiment: 19F R2-filtered NMR reporter displacement assay (Ki determination). The following applies: Langerin ECD 50 μM, pH 7.8, 25° C. Format: binding. As for the experimental part:
Langerin extracellular domain. Expression and purification were conducted as previously published (Wamhoff, E. C. et al. (19)F Nmr-Guided Design of Glycomimetic Langerin Ligands. ACS Chem Biol, 11, 2407-13 (2016)). Briefly, the trimeric Langerin extracellular domain (ECD) was expressed insolubly in E. coli BL21* (DE3) (Invitrogen). Following enzymatic cell lysis, inclusion bodies were harvested and subsequently solubilized. The sample was centrifuged and the Langerin ECD was refolded overnight via rapid dilution. Next, the sample was dialyzed overnight, centrifuged and purified via mannan-agarose affinity chromatography (Sigma Aldrich). For ^19F R2-filtered NMR and lipid-enzyme-linked lectin assay (Lipid-ELLA) experiments, the buffer was exchanged to 25 mM Tris with 150 mM NaCl and 5 mM CaCl2 at pH 7.8 using 7 kDa size-exclusion desalting columns (Thermo Scientific). For STD NMR experiments, Langerin ECD samples were dialyzed five times for at least 8 h against H2O. Subsequently, the H2O was removed via lyophilization and the residue was stored at −80° C. Prior to STD NMR experiments, the Langerin ECD was dissolved in 25 mM Tris-d11 (Eurisotope) with 100% D2O, 150 mM NaCl and 5 mM CaCl2 at pH 7. The concentration of Langerin ECD was determined via UV spectroscopy (A280, 0.1%=2.45). Purity and monodispersity of Langerin ECD samples were analyzed via SDS PAGE and DLS.
General remarks. ^19F R2-filtered NMR experiments were conducted on a PremiumCompact 600 MHz spectrometer (Agilent). Spectra were processed in MestReNova and data analysis was performed with OriginPro (Mestrelab Research. Mestrenova. 11.0.2. (2016); OriginLab. Originpro. 9.1. (2015)). Experiments with the Langerin ECD were performed at a receptor concentration of 50 μM in 25 mM Tris with 10% D2O, 150 mM NaCl and 5 mM CaCl2 at pH 7.8 and 25° C. Experiments with the DC-SIGN CRD were performed at a receptor concentration of 50 μM in 25 mM HEPES with 10% D2O, 150 mM NaCl and 5 mM CaCl2 at pH 7.0 and 25° C. TFA served as an internal reference at a concentration of 50 μM. Apparent relaxation rates R2,obs for the reporter ligand were determined using the CPMG pulse sequence as previously published (Wamhoff, E. C. et al. (19)F Nmr-Guided Design of Glycomimetic Langerin Ligands. ACS Chem Biol, 11, 2407-13 (2016): Carr, H. Y. & Purcell, E. M. Effects of Diffusion on Free Precession in Nuclear Magnetic Resonance Experiments. Phys Rev, 94, 630-638 (1954); Meiboom, S. & Gill, D. Modified Spin-Echo Method for Measuring Nuclear Relaxation Times. Rev Sci Instrum 29, 688-691 (1958)).
Ki determination. Ki values were determined as previously published for Langerin (Wamhoff, E. C. et al. (19)F NMR-Guided Design of Glycomimetic Langerin Ligands. ACS Chem Biol 11, 2407-13 (2016)). Briefly, titration experiments were conducted at a concentration of 0.1 mM of reporter ligand 24 at five competitor concentrations [I]T. Samples were prepared via serial dilution. For the acids GlcNS, GlcNAc-6-OS and GlcNS-6-OS the pH values were monitored and adjusted to 7.8 if necessary.

In a further data set the target is T3, DC-SIGN (Homo sapiens, UniProt Q9NNX6).
T3 sequence (Q9NNX6 1-404): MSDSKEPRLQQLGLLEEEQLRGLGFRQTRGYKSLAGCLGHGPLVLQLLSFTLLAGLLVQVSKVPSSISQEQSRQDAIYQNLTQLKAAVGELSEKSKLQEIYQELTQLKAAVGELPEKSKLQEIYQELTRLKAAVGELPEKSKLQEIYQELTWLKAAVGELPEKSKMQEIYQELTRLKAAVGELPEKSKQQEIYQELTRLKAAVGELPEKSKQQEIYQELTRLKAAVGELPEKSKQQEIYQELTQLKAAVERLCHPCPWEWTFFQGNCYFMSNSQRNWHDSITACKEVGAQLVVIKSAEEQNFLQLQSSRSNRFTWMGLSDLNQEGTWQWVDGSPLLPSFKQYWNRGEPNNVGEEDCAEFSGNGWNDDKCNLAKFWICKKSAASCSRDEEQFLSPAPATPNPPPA
Particulars: literature; cited from earlier work.

Another data set relates to hLangerin+ Raji cells. In words: cell-based binding and internalization assay of functionalized GFP. On the set-up: species or system human. The following applies: 4° C., in words. The procedure: In FIG. 21 (A) the binding and uptake of functionalized GFP at 4° C. and 37° C. was dose-dependently measured by flow cytometry with Raji and Langerin^+ Raji cells. In FIG. 21 (B) GFP and liposomes were incubated for various time points with Langerin^+ Raji cells. Here, FITC-BSA encapsulated liposomes were utilized to compare the FITC fluorescence with the GFP fluorescence.
Functionalized GFP was then tested in a cell-based binding and internalization assay. Both GlcNTosyl functionalized GFP and unconjugated GFP were incubated with WT or hLangerin^+ Raji cells at 4° C. and at 37° C. for 1 h or 2 h, respectively (see FIG. 21). Targeted GFP specifically bound to Langerin expressing cells and saturated at concentrations above 1 μg/ml (see FIG. 21 (A)). […] GFP fluorescence was slightly elevated compared to the binding assay and also saturated above 1 μg/ml.

A further data set has as its system Langerin+ cells. In words: in vitro cytotoxicity, Annexin-V / 7-AAD staining. Format: cell-based. Particulars: 50% DMSO for 3 min, positive control. The procedure: Liposomes consist mainly of phospholipids and cholesterol. […] As a positive control, cells were treated for 3 min with 50% DMSO. Untreated cells were applied as negative controls. Cells were washed and resuspended in 25 μl buffer (10 mM HEPES, 140 mM NaCl and 2.5 mM CaCl2), pH7.4) containing 1:100 diluted Annexin-V-FITC (Adipogen). Cells were incubated for 10 min in the dark at room temperature. After washing, cells were resuspended in 100 μl buffer containing 1 μl 7-AAD solution (Biolegend) and incubated for 5-10 min in the dark at room temperature. Cells were directly measured without any further washing steps by flow cytometry. […] Annexin-V was detected with a 530/30 filter, 7-AAD with a 695/40 filter and Alexa647 with a 670/14 filter (Attune Nxt, life technologies). […] Langerin targeted liposomes were incubated with cells for extended time periods up to 72 h, and cell toxicity was subsequently analyzed (see FIG. 17).
Early apoptotic effects were detected with Annexin-V staining that binds translocated phosphatidylserine, whereas late apoptotic cells were stained with 7-AAD a cell impermeable fluorescent intercalator that associates to DNA and undergoes a spectral shift. […] After doublet discrimination, single cells were analyzed for Annexin-V-FITC and 7-AAD staining in a bivariate histogram by dividing the plot in four quadrants. […]

For the molecule `O=C[C@@H](O)[C@@H](O)[C@H](O)[C@H](O)CO` [Man, mannose], the Ki at DC-SIGN CRD was determined as 3000 ± 300 µM; at Langerin ECD, 4500 ± 500 µM.
`O=S(=O)(O)N[C@H]1C(O)O[C@H](COS(=O)(=O)O)[C@@H](O)[C@@H]1O` (stereo partly shown) [GlcNS-6-OS, glucosamine-2-sulfate-6-sulfate] came in with an inhibition constant (Ki) on Langerin ECD of 280 ± 60 µM.
`CC(=O)N[C@H]1C(O)O[C@H](CO)[C@@H](O[C@@H]2O[C@H](CO)[C@H](O)[C@H](O)[C@H]2O)[C@@H]1O[C@@H]1O[C@@H](C)[C@@H](O)[C@@H](O)[C@@H]1O` (stereo partly shown) [Le^X]: the Kd at DC-SIGN is around 1000 µM.
As to `OC[C@H]1OC(O)[C@H](O)[C@@H](O)[C@@H]1O` (stereo partly shown) [Glc], the Ki at Langerin ECD stood at 21000 ± 4000 µM.
“Unconjugated GFP: Green Fluorescence Protein without ligand, SEQ ID NO: 82”: in the data set on hLangerin+ Raji cells, the fluorescence signal entry is “did not show increased fluorescence signals”.
Molecule `CC(=O)N[C@H]1C(O)O[C@H](CO)[C@@H](O)[C@@H]1O` (stereo partly shown) [GlcNAc, N-acetyl glucosamine] registered a Ki at Langerin ECD of 4100 ± 700 µM.
Molecule `C[S+](C)[O-]` [DMSO] yielded a dead cells with Langerin+ cells of 98%.
On to `CC(=O)N[C@H]1C(O)O[C@H](COS(=O)(=O)O)[C@@H](O)[C@@H]1O` (stereo partly shown) [GlcNAc-6-OS, N-acetyl glucosamine-6-sulfate], for which, on Langerin ECD, the affinity, expressed as Ki, was 600 ± 100 µM.
At Langerin ECD, `O=S(=O)(O)N[C@H]1C(O)O[C@H](CO)[C@@H](O)[C@@H]1O` (stereo partly shown) [GlcNS, glucosamine-2-sulfate] displayed a Ki of 1400 ± 200 µM. This Ki lies about 2.3-fold higher than the previous one.
